# From patent publication US9422297B2, “Tricyclic compounds having cytostatic and/or cytotoxic activity and methods of use thereof” (Duquesne University of the Holy Ghost, priority 2007, dated 2016)
# pIC50: −log10 of the molar value.
# Assays:
# [1] = tested on: K-562; assay: NCI In-Vitro Testing, Leukemia; type: cell-based
# [2] = tested on: U251; assay: NCI In-Vitro Testing, CNS Cancer; type: cell-based
# [3] = tested on: BT-549; assay: NCI In-Vitro Testing, Breast Cancer; type: cell-based
# [4] = molecular target: Flk-1 kinase (Homo sapiens (Human), UniProt P35968); assay: Flk-1 kinase inhibition; type: biochemical; details: Table 3
# [5] = tested on: KM12; assay: NCI In-Vitro Testing, Colon Cancer; type: cell-based
# [6] = tested on: EKVX; assay: NCI In-Vitro Testing, Non-Small Cell Lung Cancer; type: cell-based
# [7] = tested on: MOLT-4; assay: NCI In-Vitro Testing, Leukemia; type: cell-based
# [8] = tested on: HCT-116; assay: NCI In-Vitro Testing, Colon Cancer; type: cell-based
# [9] = tested on: NCI-H226; assay: NCI In-Vitro Testing, Non-Small Cell Lung Cancer; type: cell-based
# [10] = tested on: UO-31; assay: NCI In-Vitro Testing, Renal Cancer; type: cell-based
# [11] = tested on: NCI-H460; assay: NCI In-Vitro Testing, Non-Small Cell Lung Cancer; type: cell-based
# [12] = tested on: T-47D; assay: NCI In-Vitro Testing, Breast Cancer; type: cell-based
# [13] = tested on: SK-MEL-5; assay: NCI In-Vitro Testing, Melanoma; type: cell-based
# [14] = tested on: TK-10; assay: NCI In-Vitro Testing, Renal Cancer; type: cell-based
# [15] = tested on: COLO 205; assay: NCI In-Vitro Testing, Colon Cancer; type: cell-based
# [16] = tested on: M14; assay: NCI In-Vitro Testing, Melanoma; type: cell-based
# [17] = tested on: DU-145; assay: NCI In-Vitro Testing, Prostate Cancer; type: cell-based
# [18] = tested on: SF-539; assay: NCI In-Vitro Testing, CNS Cancer; type: cell-based
# [19] = tested on: LOXIMVI; assay: NCI In-Vitro Testing, Melanoma; type: cell-based
# Chain of Flk-1 kinase (P35968 20-1356): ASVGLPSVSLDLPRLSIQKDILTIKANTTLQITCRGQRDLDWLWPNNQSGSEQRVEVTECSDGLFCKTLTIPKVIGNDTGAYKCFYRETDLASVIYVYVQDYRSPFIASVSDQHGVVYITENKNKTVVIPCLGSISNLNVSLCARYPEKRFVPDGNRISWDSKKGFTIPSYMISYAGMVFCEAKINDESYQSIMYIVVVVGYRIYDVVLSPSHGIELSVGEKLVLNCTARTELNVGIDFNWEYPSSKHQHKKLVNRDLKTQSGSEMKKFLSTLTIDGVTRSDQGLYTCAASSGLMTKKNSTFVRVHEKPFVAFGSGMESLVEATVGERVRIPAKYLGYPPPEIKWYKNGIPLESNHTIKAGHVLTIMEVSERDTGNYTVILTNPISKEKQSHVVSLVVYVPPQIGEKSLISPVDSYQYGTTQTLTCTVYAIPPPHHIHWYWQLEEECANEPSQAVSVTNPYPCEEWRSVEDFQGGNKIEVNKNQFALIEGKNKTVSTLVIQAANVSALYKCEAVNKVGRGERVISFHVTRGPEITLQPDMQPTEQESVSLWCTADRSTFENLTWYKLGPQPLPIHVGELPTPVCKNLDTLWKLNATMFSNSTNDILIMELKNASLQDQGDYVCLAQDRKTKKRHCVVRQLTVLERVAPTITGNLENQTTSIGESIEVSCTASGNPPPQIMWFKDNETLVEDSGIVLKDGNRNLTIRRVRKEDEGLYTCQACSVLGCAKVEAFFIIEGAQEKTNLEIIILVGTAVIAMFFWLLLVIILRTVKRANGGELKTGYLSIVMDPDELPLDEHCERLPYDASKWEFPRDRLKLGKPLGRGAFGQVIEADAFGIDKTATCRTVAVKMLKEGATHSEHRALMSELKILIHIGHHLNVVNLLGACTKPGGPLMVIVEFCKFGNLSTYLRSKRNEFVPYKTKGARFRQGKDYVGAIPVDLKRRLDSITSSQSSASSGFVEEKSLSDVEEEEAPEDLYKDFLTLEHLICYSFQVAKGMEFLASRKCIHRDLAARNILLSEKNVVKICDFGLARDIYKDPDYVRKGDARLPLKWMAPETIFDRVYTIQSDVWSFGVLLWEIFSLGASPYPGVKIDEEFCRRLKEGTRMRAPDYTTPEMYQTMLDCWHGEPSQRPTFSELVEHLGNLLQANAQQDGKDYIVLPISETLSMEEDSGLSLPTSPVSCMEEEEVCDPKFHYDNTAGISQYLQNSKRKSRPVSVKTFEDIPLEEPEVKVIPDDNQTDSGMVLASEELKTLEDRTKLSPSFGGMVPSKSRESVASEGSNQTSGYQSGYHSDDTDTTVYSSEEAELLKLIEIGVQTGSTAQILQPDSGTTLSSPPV
compound,measurement,setting,value
Nc1nc2c(c(Nc3ccc(Cl)cc3)n1)-c1ccccc1C2 [AAG145-136],GI50,[1],3.56E−7 Molar
same,LC50,[1],>1.00E−4 Molar
same,TGI,[1],>1.00E−4 Molar
same,Percent Growth,[1]; Log10 Concentration −4.0 Molar,26%
same,Percent Growth,[1]; Log10 Concentration −5.0 Molar,16%
same,Percent Growth,[1]; Log10 Concentration −6.0 Molar,20%
same,Percent Growth,[1]; Log10 Concentration −7.0 Molar,89%
same,Percent Growth,[1]; Log10 Concentration −8.0 Molar,103%
same,GI50,[2],1.84E−7 Molar
same,LC50,[2],>1.00E−4 Molar
same,TGI,[2],5.66E−5 Molar
same,Percent Growth,[2]; Log10 Concentration −4.0 Molar,−6%
same,Percent Growth,[2]; Log10 Concentration −5.0 Molar,19%
same,Percent Growth,[2]; Log10 Concentration −6.0 Molar,29%
same,Percent Growth,[2]; Log10 Concentration −7.0 Molar,53%
same,Percent Growth,[2]; Log10 Concentration −8.0 Molar,98%
same,GI50,[3],2.83E−6 Molar
same,LC50,[3],>1.00E−4 Molar
same,TGI,[3],7.58E−5 Molar
same,Percent Growth,[3]; Log10 Concentration −4.0 Molar,−4%
same,Percent Growth,[3]; Log10 Concentration −5.0 Molar,32%
same,Percent Growth,[3]; Log10 Concentration −6.0 Molar,65%
same,Percent Growth,[3]; Log10 Concentration −7.0 Molar,85%
same,Percent Growth,[3]; Log10 Concentration −8.0 Molar,103%
same,pIC50,[4],< 3.70
same,GI50,[5],3.30E−7 Molar
same,LC50,[5],>1.00E−4 Molar
same,TGI,[5],>1.00E−4 Molar
same,Percent Growth,[5]; Log10 Concentration −4.0 Molar,5%
same,Percent Growth,[5]; Log10 Concentration −5.0 Molar,7%
same,Percent Growth,[5]; Log10 Concentration −6.0 Molar,25%
same,Percent Growth,[5]; Log10 Concentration −7.0 Molar,77%
same,Percent Growth,[5]; Log10 Concentration −8.0 Molar,98%
same,GI50,[6],2.71E−8 Molar
same,LC50,[6],>1.00E−4 Molar
same,TGI,[6],>1.00E−4 Molar
same,Percent Growth,[6]; Log10 Concentration −4.0 Molar,4%
same,Percent Growth,[6]; Log10 Concentration −5.0 Molar,26%
same,Percent Growth,[6]; Log10 Concentration −6.0 Molar,68%
same,Percent Growth,[6]; Log10 Concentration −7.0 Molar,68%
same,Percent Growth,[6]; Log10 Concentration −8.0 Molar,101%
same,GI50,[7],6.61E−8 Molar
same,LC50,[7],>1.00E−4 Molar
same,TGI,[7],>1.00E−4 Molar
same,Percent Growth,[7]; Log10 Concentration −4.0 Molar,21%
same,Percent Growth,[7]; Log10 Concentration −5.0 Molar,11%
same,Percent Growth,[7]; Log10 Concentration −6.0 Molar,14%
same,Percent Growth,[7]; Log10 Concentration −7.0 Molar,39%
same,Percent Growth,[7]; Log10 Concentration −8.0 Molar,99%
same,GI50,[8],3.81E−8 Molar
same,LC50,[8],>1.00E−4 Molar
same,TGI,[8],>1.00E−4 Molar
same,Percent Growth,[8]; Log10 Concentration −4.0 Molar,6%
same,Percent Growth,[8]; Log10 Concentration −5.0 Molar,13%
same,Percent Growth,[8]; Log10 Concentration −6.0 Molar,13%
same,Percent Growth,[8]; Log10 Concentration −7.0 Molar,23%
same,Percent Growth,[8]; Log10 Concentration −8.0 Molar,87%
same,GI50,[9],2.14E−6 Molar
same,LC50,[9],>1.00E−4 Molar
same,TGI,[9],>1.00E−4 Molar
same,Percent Growth,[9]; Log10 Concentration −4.0 Molar,14%
same,Percent Growth,[9]; Log10 Concentration −5.0 Molar,36%
same,Percent Growth,[9]; Log10 Concentration −6.0 Molar,57%
same,Percent Growth,[9]; Log10 Concentration −7.0 Molar,97%
same,Percent Growth,[9]; Log10 Concentration −8.0 Molar,98%
same,GI50,[10],7.90E−7 Molar
same,LC50,[10],>1.00E−4 Molar
same,TGI,[10],>1.00E−4 Molar
same,Percent Growth,[10]; Log10 Concentration −4.0 Molar,31%
same,Percent Growth,[10]; Log10 Concentration −5.0 Molar,31%
same,Percent Growth,[10]; Log10 Concentration −6.0 Molar,46%
same,Percent Growth,[10]; Log10 Concentration −7.0 Molar,88%
same,Percent Growth,[10]; Log10 Concentration −8.0 Molar,105%
same,GI50,[11],1.93E−8 Molar
same,LC50,[11],>1.00E−4 Molar
same,TGI,[11],>1.00E−4 Molar
same,Percent Growth,[11]; Log10 Concentration −4.0 Molar,3%
same,Percent Growth,[11]; Log10 Concentration −5.0 Molar,3%
same,Percent Growth,[11]; Log10 Concentration −6.0 Molar,15%
same,Percent Growth,[11]; Log10 Concentration −7.0 Molar,23%
same,Percent Growth,[11]; Log10 Concentration −8.0 Molar,61%
same,GI50,[12],2.90E−6 Molar
same,LC50,[12],>1.00E−4 Molar
same,TGI,[12],>1.00E−4 Molar
same,Percent Growth,[12]; Log10 Concentration −4.0 Molar,27%
same,Percent Growth,[12]; Log10 Concentration −5.0 Molar,34%
same,Percent Growth,[12]; Log10 Concentration −6.0 Molar,63%
same,Percent Growth,[12]; Log10 Concentration −7.0 Molar,83%
same,Percent Growth,[12]; Log10 Concentration −8.0 Molar,88%
same,GI50,[13],5.13E−7 Molar
same,LC50,[13],>1.00E−4 Molar
same,TGI,[13],1.59E−5 Molar
same,Percent Growth,[13]; Log10 Concentration −4.0 Molar,−45%
same,Percent Growth,[13]; Log10 Concentration −5.0 Molar,11%
same,Percent Growth,[13]; Log10 Concentration −6.0 Molar,35%
same,Percent Growth,[13]; Log10 Concentration −7.0 Molar,87%
same,Percent Growth,[13]; Log10 Concentration −8.0 Molar,95%
same,GI50,[14],2.15E−6 Molar
same,LC50,[14],>1.00E−4 Molar
same,TGI,[14],>1.00E−4 Molar
same,Percent Growth,[14]; Log10 Concentration −4.0 Molar,27%
same,Percent Growth,[14]; Log10 Concentration −5.0 Molar,34%
same,Percent Growth,[14]; Log10 Concentration −6.0 Molar,58%
same,Percent Growth,[14]; Log10 Concentration −7.0 Molar,113%
same,Percent Growth,[14]; Log10 Concentration −8.0 Molar,110%
same,GI50,[15],6.38E−7 Molar
same,LC50,[15],>1.00E−4 Molar
same,TGI,[15],>1.00E−4 Molar
same,Percent Growth,[15]; Log10 Concentration −4.0 Molar,11%
same,Percent Growth,[15]; Log10 Concentration −5.0 Molar,11%
same,Percent Growth,[15]; Log10 Concentration −6.0 Molar,41%
same,Percent Growth,[15]; Log10 Concentration −7.0 Molar,86%
same,Percent Growth,[15]; Log10 Concentration −8.0 Molar,99%
same,GI50,[16],4.31E−7 Molar
same,LC50,[16],>1.00E−4 Molar
same,TGI,[16],>1.00E−4 Molar
same,Percent Growth,[16]; Log10 Concentration −4.0 Molar,34%
same,Percent Growth,[16]; Log10 Concentration −5.0 Molar,21%
same,Percent Growth,[16]; Log10 Concentration −6.0 Molar,31%
same,Percent Growth,[16]; Log10 Concentration −7.0 Molar,84%
same,Percent Growth,[16]; Log10 Concentration −8.0 Molar,102%
same,GI50,[17],2.12E−7 Molar
same,LC50,[17],>1.00E−4 Molar
same,TGI,[17],>1.00E−4 Molar
same,Percent Growth,[17]; Log10 Concentration −4.0 Molar,7%
same,Percent Growth,[17]; Log10 Concentration −5.0 Molar,18%
same,Percent Growth,[17]; Log10 Concentration −6.0 Molar,37%
same,Percent Growth,[17]; Log10 Concentration −7.0 Molar,56%
same,Percent Growth,[17]; Log10 Concentration −8.0 Molar,95%
same,GI50,[18],3.81E−7 Molar
same,LC50,[18],>1.00E−4 Molar
same,TGI,[18],>1.00E−4 Molar
same,Percent Growth,[18]; Log10 Concentration −4.0 Molar,2%
same,Percent Growth,[18]; Log10 Concentration −5.0 Molar,20%
same,Percent Growth,[18]; Log10 Concentration −6.0 Molar,31%
same,Percent Growth,[18]; Log10 Concentration −7.0 Molar,77%
same,Percent Growth,[18]; Log10 Concentration −8.0 Molar,101%
same,GI50,[19],3.08E−7 Molar
same,LC50,[19],>1.00E−4 Molar
same,TGI,[19],>1.00E−4 Molar
same,Percent Growth,[19]; Log10 Concentration −4.0 Molar,15%
same,Percent Growth,[19]; Log10 Concentration −5.0 Molar,11%
same,Percent Growth,[19]; Log10 Concentration −6.0 Molar,16%
same,Percent Growth,[19]; Log10 Concentration −7.0 Molar,52%
same,Percent Growth,[19]; Log10 Concentration −8.0 Molar,106%
